Measured values taken from patent US7396524B2, “Methods for screening compounds for proarrhythmic risk and antiarrhythmic efficacy” (Main Line Health Heart Center, priority 2005, dated 2008).
Like-named read-outs stand apart in the source and are kept apart here.

Experiments:
[1] = cited from earlier work
[2] = test system: rabbit left ventricular wedge preparations and single rabbit ventricular myocytes
Purkinje fiber = conditions: cited from earlier work
[3] = experimental data; cited from earlier work
[4] = test system: rabbit left ventricular wedge preparations; test: Rabbit left ventricular wedge preparation: endocardial APD90, EAD and TdP
Protocol: Female rabbits weighting 2.5-3 kg were anticoagulated with heparin and anesthetized with pentobarbital (30-35 mg/kg, i.v.). The chest was opened via a left thoracotomy, and the heart was excised and placed in a cardioplegic solution consisting of cold (4° C.) normal Tyrode's solution. Transmural wedges with dimensions of approximately 1.5 cm wide and 2-3 cm long were dissected from the left ventricle. The wedge tissue was cannulated via the circumflex or left main artery and perfused with cardioplegic solution. The preparation was then placed in a small tissue bath and arterially perfused with Tyrode's solution containing 4 mM K^+ buffered with 95% O2 and 5% CO2 (T: 35.7±0.1° C., perfusion pressure: 35-45 mmHg). The ventricular wedge was allowed to equilibrate in the tissue bath until electrically stable, approximately one hour. The preparations were stimulated at basic cycle lengths (BCL) of 1000 and 2000 ms using bipolar silver electrodes insulated except at the tips and applied to the endocardial surface.
A transmural ECG signal was recorded in all experiments using extracellular silver/silver chloride electrodes placed in the Tyrode's solution bathing the preparation. Electrodes were placed 1.0 to 1.5 cm from the epicardial and endocardial surfaces, along the same vector as the transmembrane recordings (Epi: “+” pole). The QT interval was defined as the time from the onset of the QRS to the point at which the final downslope of the T wave crosses the isoelectric line. Transmembrane action potentials were recorded simultaneously from epicardial and endocardial sites of the rabbit left ventricular wedge preparations. The action potential duration was measured at 90% repolarization (APD90).

[5] = test system: L-type calcium channel current (ICa,L); test: Ratio of ICa,L recovery time constant (whole-cell voltage clamp, double-pulse protocol) to endocardial APD90; assay type: cell-based; conditions: 30 μM; control ratio 0.448; rabbit
Protocol: Single rabbit ventricular myocytes were isolated using the enzymatic digestion method as described in Rials et al., Circulation 1997; 96:1330-1336. The rabbit heart was initially perfused with 500 ml Ca^2+-free solution (in mM: NaCl 125, KCl 3.5, KH2PO4 1.5, MgCl2 1, NaHCO3 20, glucose 10) gassed with 95% O2-5% CO2 at 37° C. at a rate of 30 ml/min with a peristaltic pump. The heart was then perfused with 80 ml enzyme solution (48 mg collagenase (type II), 12 mg hyaluronidase, 80 mg BSA, and 300 mg taurine to the Ca^2+-free solution). The enzyme solution passed through the heart a single time before 40 ml, and recirculation after 40 ml. […]
ICa,L was recorded in rabbit single ventricular myocytes at 35.7±0.1° C. using the whole-cell voltage-clamp technique as described by Linz and Meyer, Pflugers Arch. […]
The action potentials were first recorded from the endocardium of the rabbit left ventricular wedge preparation at a basic cycle length of 2000 ms before and after exposure to a test compound. […]
The ratio of ICa,L recovery time constant to endocardial APD90 under control and after exposure to one of the test compounds described above was determined as follows: the ratio equals τ(ms)/APD90 (ms). The relative TdP risk score was then calculated based on the change in the QT interval and the ratio according to the criteria listed in Table 1. […]

| Maximal TdP Score ([2]; 20 min) | maximal TdP score in the testing concentration range ([2]; 20 min) | SMILES | other results |
| --- | --- | --- | --- |
|  |  | CCCCc1oc2ccccc2c1C(=O)c1cc(I)c(OCCN(CC)CC)c(I)c1 [amiodarone] | TdP risk in humans [1]: rarely causes TdP |
| 7.5 ± 0.3 | 7.50±0.26 | CC(C)COCC(CN(Cc1ccccc1)c1ccccc1)N1CCCC1 (stereo not shown) [bepridil] | increase in the action potential duration of the Purkinje fiber (Purkinje fiber): have not been shown to produce a significant increase; increase in the QT interval [3]: fails to produce a significant increase; TdP risk in humans [1]: known to cause TdP in humans |
| 1.3 ± 0.2 | 1.25±0.22 | CN(C)CCCC1(c2ccc(F)cc2)OCc2cc(C#N)ccc21 (stereo not shown) [citalopram] |  |
|  |  | CN(CCOc1ccc(NS(C)(=O)=O)cc1)CCc1ccc(NS(C)(=O)=O)cc1 [dofetilide] | increase in rabbit endocardial APD90 ([4]; dofetilide 0.003 μM vs control, n=8): 76%; development of EAD (preparations) ([4]; dofetilide 0.003 μM, rabbit left ventricular wedge preparations): seven of eight; TdP (rabbits) ([4]; dofetilide 0.01 μM): all of eight; rabbit endocardial APD90 ([4]; female, rabbit, 0.003 μM): 443 ± 27 ms |
| 1.3 ± 0.2 | 1.25±0.22 | O=C(NCC1CCCCN1)c1cc(OCC(F)(F)F)ccc1OCC(F)(F)F (stereo not shown) [flecainide] |  |
|  |  | CNCCC(Oc1ccc(C(F)(F)F)cc1)c1ccccc1 (stereo not shown) [fluxetine] | maximal TdP score in the testing concentration range ([2]; Table 1 criteria, means ±SEM, text and FIG. 7 legend): 0.00±0.00; Maximal TdP Score ([2]; Table 2, Table 1 criteria, means ±SEM): 0.0 ± 0.0 |
| 4.2 ± 0.6 | 4.20±0.58 | O=C(CCCN1CCC(O)(c2ccc(Cl)cc2)CC1)c1ccc(F)cc1 [haloperidol] |  |
| 4.0 ± 0.0 | 4.00±0.00 | COc1c(N2C[C@@H]3CCCN[C@@H]3C2)c(F)cc2c(=O)c(C(=O)O)cn(C3CC3)c12 [moxifloxacin] |  |
| 11.8 ± 0.2 | 11.75±0.22 | C=C[C@H]1C[N@@]2CC[C@H]1C[C@@H]2[C@@H](O)c1ccnc2ccc(OC)cc12 [quinidine] |  |
| 10.0 ± 0.0 | 10.00±0.00 | CC(C)NCC(O)c1ccc(NS(C)(=O)=O)cc1 (stereo not shown) [sotalol] | ratio of ICa,L recovery time constant (τ) to endocardial APD90 [5]: 0.325 |
